Article PMC12606464, “Investigating NFE2L1 activators for targeted protein aggregate clearance: a follow-up study” (RSC Medicinal Chemistry, 2025)

Tested on: C. elegans wild-type (N2)
Assay: Acute juglone/paraquat-induced oxidative stress resistance in C. elegans N2
Assay type: in vivo, Caenorhabditis elegans
Settings: for # deaths/events: over 12 hours; for Median survival: Fig. 5C
Procedure: Fig. 5 RUN-89 prevents protein aggregation and increases stress resistance in C. elegans. (A) The AM140 strain expressing aggregation-prone Q35-YFP was treated with 50 μM RUN-89 or the vehicle for 6 days, followed by microscopy analysis. Overall, 959 Q35-YFP foci (DMSO = 517; RUN-89 = 442) were identified in 102 animals (DMSO: N = 3 populations, n = 55 animals in total; RUN-89: N = 3 populations, n = 47 animals in total). The two dashed horizontal lines indicate the interquartile range, and the thick horizontal line represents the median. The Kolmogorov–Smirnov test verified a significant reduction of surface and integrated optical density of foci after RUN-89 treatment. (B) Representative images of two animals per treatment condition. Images were taken on the same day, using identical settings for the instruments used. (C) Protective effect of RUN-89 against juglone and paraquat-induced stress. […] The mortality was monitored hourly over a 12 hour period. […] For juglone treatment, 629 animals were examined (DMSO: N = 2 populations of 167 and 152 animals, n = 319 animals in total; RUN-89: N = 2 populations of 141 and 169 animals, n = 310 animals in total). Results were analyzed using the Kaplan–Meier method and are presented as survival percentages with standard errors. The survival curves were compared using the Gehan–Breslow–Wilcoxon test (juglone) and log-rank test (paraquat). (A and C) Detailed results of the analysis are shown in SI Tables S10 and S11. *p < 0.05, ****p < 0.001.
Next, we examined whether the compound RUN-89 protects animals from oxidative damage/death induced by increased reactive oxygen species (ROS) levels. In worms, the herbicide paraquat and the naturally occurring quinone compound juglone are well-known for inducing oxidative stress.[84] In this experiment, the wild-type (N2) strain was used, and RUN-89 was administered at a concentration of 50 μM for 24 hours. Following this pretreatment, approximately 130 animals were transferred to plates containing either 180 μM juglone or 200 μM paraquat. Worm mortality was monitored over a 12-hour period. […]
2.13 C. elegans strains and maintenance
The animals were kept at 20 °C according to standard cultivation conditions (Biron & […]
(mgIs72 [rpt-3p::GFP + dpy-5(+)] II) of Caenorhabditis elegans strains and E. coli strain OP50 were obtained from the Caenorhabditis Genetic Centre (CGC, University of Minnesota , http://cbs.umn.edu/cgc/home). […]
Kolmogorov-Smirnov test performed in GraphPad Prism (v 10.6.1).
2.15 Acute juglone/paraquat-induced oxidative stress resistance in C.
Eggs of the wild-type strain (N2) were placed in liquid S-basal medium supplemented with E. coli OP50 as a food source. Upon reaching the young adult stage, they were exposed to either 50 µM RUN 89 or an equivalent volume of solvent (control group) and incubated at 20 °C for 24 hours. Approximately 130 animals were placed on plates containing either 180 µM juglone or 200 µM paraquat to induce severe oxidative stress .(5, 6) The number of dead animals was recorded each hour throughout the 12-hour experiment. The data were then analyzed using Kaplan-Meier survival analysis, and the results were examined through this method. Su rvival curves were compared via the Gehan-Breslow-Wilcoxon test or the log-rank (Mantel-Cox) test in GraphPad Prism software ( v 10.6.1).

[1] = juglon stress, B = juglon + DMSO, C = juglon + RUN-89
[2] = paraquat stress, B = paraquat + DMSO, C = paraquat + RUN-89

Structure (SMILES): COc1ccc(/C=C2\CC(NC(=O)C3CCCC3)C/C(=C\c3ccc(OC)c(OC)c3)C2=O)cc1OC (stereo not drawn) [RUN-89]
- Protection against juglone-induced lethal oxidative stress (N2, 50 μM for 24 h, then 180 μM juglone, mortality over 12 h): significant protective effect
- Protection against paraquat-induced lethal oxidative stress (N2, 50 μM for 24 h, then 200 μM paraquat, mortality over 12 h): significant protective effect
- Ratio of median survival (reciprocal), juglon + RUN-89 / juglon + DMSO (juglon stress): 1.25
- Ratio of median survival, juglon + DMSO / juglon + RUN-89 (juglon stress): 0.8
- # deaths/events (juglon stress, 306 subjects at 0 h): 305
- # at risk (juglon stress, 1 hour, 306 at 0 h): 306
- # at risk (juglon stress, 2 hours, 306 at 0 h): 289
- # at risk (juglon stress, 3 hours, 306 at 0 h): 235
- # at risk (juglon stress, 4 hours, 306 at 0 h): 190
- # at risk (juglon stress, 5 hours, 306 at 0 h): 164
- # at risk (juglon stress, 6 hours, 306 at 0 h): 124
- # at risk (juglon stress, 7 hours, 306 at 0 h): 105
- # at risk (juglon stress, 8 hours, 306 at 0 h): 82
- # at risk (juglon stress, 9 hours, 306 at 0 h): 37
- # at risk (juglon stress, 10 hours, 306 at 0 h): 13
- # at risk (juglon stress, 11 hours, 306 at 0 h): 7
- # at risk (juglon stress, 12 hours, 306 at 0 h): 1
- Median survival (juglon stress, juglon + DMSO median 4): 5 h
- Hazard Ratio (Mantel-Haenszel) B/C [1]: 1.206
- Hazard Ratio (Mantel-Haenszel) C/B [1]: 0.8295
- Hazard Ratio (logrank) B/C [1]: 1.141
- Hazard Ratio (logrank) C/B [1]: 0.8761
- Ratio of median survival (reciprocal), paraquat + RUN-89 / paraquat + DMSO (paraquat stress): 1.4
- Ratio of median survival, paraquat + DMSO / paraquat + RUN-89 (paraquat stress): 0.7143
- # deaths/events (paraquat stress, 274 subjects at 0 h): 273
- # at risk (paraquat stress, 1 hour, 274 at 0 h): 274
- # at risk (paraquat stress, 2 hours, 274 at 0 h): 263
- # at risk (paraquat stress, 3 hours, 274 at 0 h): 241
- # at risk (paraquat stress, 4 hours, 274 at 0 h): 216
- # at risk (paraquat stress, 5 hours, 274 at 0 h): 209
- # at risk (paraquat stress, 6 hours, 274 at 0 h): 167
- # at risk (paraquat stress, 7 hours, 274 at 0 h): 148
- # at risk (paraquat stress, 8 hours, 274 at 0 h): 130
- # at risk (paraquat stress, 9 hours, 274 at 0 h): 109
- # at risk (paraquat stress, 10 hours, 274 at 0 h): 84
- # at risk (paraquat stress, 11 hours, 274 at 0 h): 44
- # at risk (paraquat stress, 12 hours, 274 at 0 h): 11
- Median survival (paraquat stress, paraquat + DMSO median 5): 7 h
- Hazard Ratio (Mantel-Haenszel) B/C [2]: 1.524
- Hazard Ratio (Mantel-Haenszel) C/B [2]: 0.6563
- Hazard Ratio (logrank) B/C [2]: 1.357
- Hazard Ratio (logrank) C/B [2]: 0.7368
